Legend:
Hepatitis C virus [1] = test: Inhibition of HCV1b con1 NS3/4A protease after 20 mins by FRET-based assay; design: species or system Hepacivirus hominis; settings: Con1, 20 min
Hepatitis C virus [2] = test: Antiviral activity against HCV infected in human Huh-luc/neo-ET cells after 72 hrs by replicon assay; type: functional, organism-based, Hepacivirus hominis
Hepatitis C virus [3] = test: Selectivity ratio of IC50 for HCV1b con1 wild type NS3/4A protease over IC50 for HCV1b con1 NS3/4A protease A156T mutant; design: species or system Hepacivirus hominis
[4] = Inhibition of HCV2a wild type NS3/4A protease after 20 mins by FRET-based assay; design: species or system Hepatitis C virus subtype 2a
[5] = Inhibition of HCV1a wild type NS3/4A protease after 20 mins by FRET-based assay; design: species or system Hepatitis C virus subtype 1a
[6] = Inhibition of HCV3a wild type NS3/4A protease after 20 mins by FRET-based assay; design: species or system Hepatitis C virus subtype 3a
Hepatitis C virus [7] = test: Selectivity ratio of IC50 for HCV1b con1 wild type NS3/4A protease over IC50 for HCV1b con1 NS3/4A protease T54A mutant; design: species or system Hepacivirus hominis
Hepatitis C virus [8] = test: Selectivity ratio of IC50 for HCV1b con1 wild type NS3/4A protease over IC50 for HCV1b con1 NS3/4A protease D168A mutant; design: species or system Hepacivirus hominis
Hepatitis C virus [9] = test: Selectivity ratio of IC50 for HCV1b con1 wild type NS3/4A protease over IC50 for HCV1b con1 NS3/4A protease R155K mutant; design: species or system Hepacivirus hominis
Hepatitis C virus [10] = test: Selectivity ratio of IC50 for HCV1b con1 wild type NS3/4A protease over IC50 for HCV1b con1 NS3/4A protease A156V mutant; design: species or system Hepacivirus hominis
Hepatitis C virus [11] = test: Selectivity ratio of IC50 for HCV1b con1 wild type NS3/4A protease over IC50 for HCV1b con1 NS3/4A protease A156S mutant; design: species or system Hepacivirus hominis

Row | Compound | IC50 (Hepatitis C virus [1]) [nM] | EC50 (Hepatitis C virus [2]) [nM] | other results
1 | CCC[C@H](NC(=O)[C@@H]1C[C@@H](OC(=O)N2Cc3ccccc3C2)CN1C(=O)[C@@H](NC(=O)OCCN1CCCC1)C(C)(C)C)B1O[C@@H]2C[C@@H]3C[C@@H](C3(C)C)[C@]2(C)O1 | 5 | > 1000 | –
2 | CCC[C@H](NC(=O)[C@@H]1C[C@@H](OC(=O)N2Cc3ccccc3C2)CN1C(=O)[C@@H](NC(=O)OCC(C)C)C(C)(C)C)B1O[C@@H]2C[C@@H]3C[C@@H](C3(C)C)[C@]2(C)O1 | 0.3 | 54 | –
3 | CCC[C@H](NC(=O)[C@@H]1C[C@@H](OC(=O)N2Cc3ccccc3C2)CN1C(=O)[C@@H](NS(C)(=O)=O)C(C)(C)C)B1O[C@@H]2C[C@@H]3C[C@@H](C3(C)C)[C@]2(C)O1 | 11 | > 1000 | –
4 | CCC[C@H](NC(=O)[C@@H]1C[C@@H](OC(=O)N2Cc3ccccc3C2)CN1C(=O)[C@@H](NC(=O)OC(C)(C)C)C(C)(C)C)B1O[C@@H]2C[C@@H]3C[C@@H](C3(C)C)[C@]2(C)O1 | 0.8 | 93 | –
5 | CCC[C@H](NC(=O)[C@@H]1C[C@@H](OC(=O)N2Cc3ccccc3C2)CN1C(=O)[C@@H](NC(=O)NCCN(CC)CC)C(C)(C)C)B1O[C@@H]2C[C@@H]3C[C@@H](C3(C)C)[C@]2(C)O1 | 27 | > 1000 | –
6 | CC(C)(C)OC(=O)N[C@H](C(=O)N1C[C@H](OC(=O)N2Cc3ccccc3C2)C[C@H]1C(=O)N[C@@H](CC1CCC1)B(O)O)C(C)(C)C | 2 | 171 | –
7 | CC[C@H](NC(=O)[C@@H]1C[C@@H](OC(=O)N2Cc3ccccc3C2)CN1C(=O)[C@@H](NC(=O)OC(C)(C)C)C1CCCCC1)B(O)O | 1 | 71 | Ratio IC50 (Hepatitis C virus [3]): 40; IC50 [4]: 6 nM; IC50 [5]: 0.9 nM; IC50 [6]: 23 nM; Ratio IC50 (Hepatitis C virus [7]): 69; Ratio IC50 (Hepatitis C virus [8]): 47; Ratio IC50 (Hepatitis C virus [9]): 63; Ratio IC50 (Hepatitis C virus [10]): 64; Ratio IC50 (Hepatitis C virus [11]): 4
8 | CCC[C@H](NC(=O)[C@@H]1C[C@@H](OC(=O)N2Cc3ccccc3C2)CN1C(=O)[C@@H](NC(=O)C(O)C(C)(C)C)C(C)(C)C)B1O[C@@H]2C[C@@H]3C[C@@H](C3(C)C)[C@]2(C)O1 (some centres undefined) | 3 | > 1000 | –
9 | CCC[C@H](NC(=O)[C@@H]1C[C@@H](OC(=O)N2Cc3ccccc3C2)CN1C(=O)[C@@H](NC(=O)OCC(C)(C)C)C(C)(C)C)B1O[C@@H]2C[C@@H]3C[C@@H](C3(C)C)[C@]2(C)O1 | 0.7 | 41 | –
10 | CCC[C@H](NC(=O)[C@@H]1C[C@@H](OC(=O)N2Cc3ccccc3C2)CN1C(=O)[C@@H](NC(=O)OCC)C(C)(C)C)B1O[C@@H]2C[C@@H]3C[C@@H](C3(C)C)[C@]2(C)O1 | 2 | 230 | –
11 | CC(C)(C)OC(=O)N[C@H](C(=O)N1C[C@H](OC(=O)N2Cc3ccccc3C2)C[C@H]1C(=O)NC1(B(O)O)CC1)C1CCCCC1 | 3350 | – | –
12 | CCC[C@H](NC(=O)[C@@H]1C[C@@H](OC(=O)N2Cc3ccccc3C2)CN1C(=O)[C@@H](NC(=O)OC(C)(C)C)C(C)(C)C)B(O)O | 1 | 69 | Ratio IC50 (Hepatitis C virus [3]): 70; IC50 [4]: 21 nM; IC50 [5]: 2 nM; IC50 [6]: 61 nM; Ratio IC50 (Hepatitis C virus [7]): 121; Ratio IC50 (Hepatitis C virus [8]): 61; Ratio IC50 (Hepatitis C virus [9]): 109; Ratio IC50 (Hepatitis C virus [10]): 158; Ratio IC50 (Hepatitis C virus [11]): 5
13 | CCC[C@H](NC(=O)[C@@H]1C[C@@H](OC(=O)N2Cc3ccccc3C2)CN1C(=O)[C@@H](NC(=O)OC(C)(C)C)C1CCCCC1)B(O)O | 2 | 110 | –
14 | CCC[C@H](NC(=O)[C@@H]1C[C@@H](OC(=O)N2Cc3ccccc3C2)CN1C(=O)[C@@H](NC(=O)N[C@H](CN(C)S(C)(=O)=O)C(C)(C)C)C(C)(C)C)B(O)O | 0.5 | 25 | Ratio IC50 (Hepatitis C virus [3]): <4; IC50 [4]: 0.6 nM; IC50 [5]: 0.3 nM; IC50 [6]: 0.9 nM; Ratio IC50 (Hepatitis C virus [7]): 8; Ratio IC50 (Hepatitis C virus [8]): <4; Ratio IC50 (Hepatitis C virus [9]): 6; Ratio IC50 (Hepatitis C virus [10]): 12; Ratio IC50 (Hepatitis C virus [11]): <4
15 | CCC[C@H](NC(=O)[C@@H]1C[C@@H](OC(=O)N2Cc3ccccc3C2)CN1C(=O)[C@@H](N)C(C)(C)C)B1O[C@@H]2C[C@@H]3C[C@@H](C3(C)C)[C@]2(C)O1 | 3200 | – | –
16 | CCC[C@H](NC(=O)[C@@H]1C[C@@H](OC(=O)N2Cc3ccccc3C2)CN1C(=O)[C@@H](NC(=O)OCCF)C(C)(C)C)B1O[C@@H]2C[C@@H]3C[C@@H](C3(C)C)[C@]2(C)O1 | 2 | 408 | –
17 | CC[C@H](NC(=O)[C@@H]1C[C@@H](OC(=O)N2Cc3ccccc3C2)CN1C(=O)[C@@H](NC(=O)OC(C)(C)C)C(C)(C)C)B(O)O | 2 | 98 | –

Reference: ChEMBL document CHEMBL1156020, “Synthesis and antiviral activity of HCV NS3/4A peptidomimetic boronic acid inhibitors” (Bioorg Med Chem Lett, 2009)
